Here are results for one compound from EPA's ToxValDB 9.5 (doi:10.2903/j.efsa.2009.297r).

The NOAEL is the highest dose or exposure tested at which no adverse effect was seen.

Values after ≈ are worked out from the molar mass of the structure shown. Values joined by “and” are separate entries in the source; they are usually repeats but may differ in a detail not shown here. Identical values can stand only once. Some results are limits rather than exact numbers.

One data set deals with Tagia sp. The note with it: mortality.
The next data set relates to Canidae. As to conditions: chronic; duration: 1 years; oral; Dog Other; body weight.
The subject of a further data set is Rattus norvegicus. As to conditions: oral.
A further data set concerns Salmo trutta ssp. fario. The note with it: acute; duration: 96 hours; mortality.
For another data set, the system named is Adalia sp. As to conditions: not reported; reproduction.
The test system of another data set is Apis mellifera. The note with it: acute; dermal; mortality.
The test system of another data set is Oryctolagus sp. As to conditions: developmental; development.
For data set [1] the following is noted: reproductive.
The subject of the next data set is Oncorhynchus mykiss. As to conditions: chronic/long-term; duration: 28 days.

On to `O=C1c2ccccc2C(=O)N1SC(Cl)(Cl)Cl` [Folpet], for which the LC50 in the data set with Tagia sp. (acute, duration: 14 days) is greater than 1000 mg/kg; in the data set with Coturnix coturnix (acute, oral, diet, mortality), greater than 1130 mg/kg-day; in the data set with Salmo trutta ssp. fario, 0.098 µg/mL (≈ 0.33 µM); in the data set with Oncorhynchus mykiss, 0.11 µg/mL (≈ 0.371 µM); in the data set with Anas platyrhynchos (short-term, oral, feed, mortality), greater than 746 mg/kg-day. The NOEC was found to be 5.18 mg/kg in the data set with Tagia sp. (chronic/long-term); 78.3 mg/kg-day in the data set with Coturnix coturnix (reproduction developmental, reproduction); 1500 mg/kg in [1]; 90 mg/kg-day in the data set with Anas platyrhynchos (reproductive). The NOAEL is 10 mg/kg-day in the data set with Canidae; 10 mg/kg-day in the data set on Rattus norvegicus (chronic, duration: 2 years, diet, body weight); 10 mg/kg-day and 20 mg/kg-day with Oryctolagus sp.. Moreover, the LD50 in the data set on Rattus norvegicus (acute, mortality) is greater than 2000 mg/kg; in the data set with Coturnix coturnix (acute, oral, mortality), greater than 2510 mg/kg; with Apis mellifera it was greater than 200 µg/piece. This compound also registered an LEL with Adalia sp. of 530 g/ha.
